Laboratory results published in US10022342B2, “Methods and compositions for treating multiple myeloma” (Ohio State Innovation Foundation, priority 2015, dated 2018).

Key:
MM cells = assay: IC50 concentrations of HDAC inhibitors in MM cells; type: cell-based; details: Homo sapiens
CD44 = CD44 levels in MM.1S subcutaneous xenograft mice (IHC, serum ELISA); type: in vivo; details: 25 mg/kg, 2 injections
Procedure: To investigate if AR-42 treatment could affect CD44 expression in vivo, a xenograft MM mouse model was created by injecting 1×10^7 viable cells of MM.1S cell line subcutaneously into the right flank of 12 NOD-SCID mice. […] One group of mice (n=4) received intra-peritoneal injections of 25 mg/kg AR-42, while the second group (n=4) was injected with vehicle control (8% DMSO in PBS; Ctrl). Injections were administered once a day (on Monday and Wednesday). Because the anti-tumor activity of AR-42 has been previously reported in preclinical mouse studies, mice were sacrificed 2 days after the second injection in order to avoid tumor size reduction. […] Tumors were excised and used for CD44 immunohistochemical (IHC) studies, while the serum was collected for ELISA assays. […] Thus, AR-42 down-regulates CD44 directly in vivo.
Blood from xenografted mice (0.6 ml/kg) was collected by retro-orbital bleeding and serum was obtained by centrifuging it at 1500×g for 10 min. […] Finally, 100 […] of Stop Reagent was added and absorbance was read on a spectrophotometer at 450 nm. Soluble CD44 (sCD44) content was calculated based on the readings from the standard and sample dilution factor.
Animal experiments were performed according to OSU institutional guidelines. […] The tumor size was measured once a week using a caliper, and the volume was calculated in cubed millimeters (mm3), using the formula L×W2/2. […]

## CC(C)[C@H](C(=O)Nc1ccc(C(=O)NO)cc1)c1ccccc1 [AR-42, (S)-N-hydroxy-4-(3-methyl-2-phenylbutanamido)benzamide]
MM cells
  IC50: 200 nM
CD44
  soluble CD44 in serum (ELISA): decreased levels
CD44; vs control group
  CD44 staining of tumor sections (IHC): significant lower CD44 staining
